Data from US7892354B2, “Process for the parallel detection of crystalline forms of molecular solids” (Solvias AG, priority 2003, dated 2011).
Where a name gives a salt, the structure may show the parent alone.

Assays:
[1] = Parallel phase equilibrium experiments in suspensions of 32 solvents and solvent mixtures, Raman spectra grouped into classes; format: physicochemical; conditions: 64 experiments, 32 solvents/solvent mixtures; for number of different classes of Raman spectra (ideally corresponding to different solid forms of sertraline HCl): 48 hours shaking, temperature cycled between 18° C. and 28° C., similarity factor 0.5; for occurrence of form II among the solid forms obtained: 48 hours, 18° C. to 28° C., verified against reference spectra, HCl
Protocol: A reference experiment with the stable form I as starting material is designed in such a way that 64 experiments are carried out for establishing the phase equilibrium in suspensions of 32 different solvents and solvent mixtures. For this purpose, 32 of the vessels in a 96-well quartz microtitre plate are each filled with about 5 mg of sertraline HCl form 1, and 100 microlitres of the corresponding solvent are then introduced into each vessel in accordance with the plan below, and the plate is closed with seals.
The microtitre plate is then shaken on a mechanical shaker (Eppendorf, Thermomixer Comfort) for 48 hours, the temperature of the mechanical shaker being changed cydically between 18° C. and 28° C. A cycle corresponds to one hour. The shaking frequency is 500 per minute. After a time of 48 hours for establishing equilibrium, the microtitre plate is removed from the mechanical shaker and the solid in each of the occupied vessels is investigated directly in the suspension using a Raman microscope (Renishaw Raman microscope system RM 1000). One or two Raman spectra are recorded in each vessel. The solvents in each vessel are then evaporated with the aid of a seal system having flow-through channels according to WO 03/026797 under nitrogen, a flow rate of about 0.03 litre/hour being established. Altogether, 80 Raman spectra are recorded in 64 experiments (32 directly from the suspension and 32 from the dried suspension).
The measured Raman spectra are divided into different classes of spectra on the basis of their differences. A separate evaluation programme which carries out an automatic comparison of measured spectra on the basis of the wave numbers of emission maxima in the Raman spectrum and generates a classification is used for this purpose. A distinguishing criterion is a similarity factor which is determined by visual assessment of selected, individual spectra.
Similarly to the reference example described above, 64 experiments are carried out in 32 different solvents and solvent mixtures in 32 vessels of a 96-well microtitre plate. For this purpose, each of the 32 vessels is occupied with 3 mg of the amorphous form. 100 microlitres of solvent according to the plan given in the comparative example are then filled into each of the 32 vessels, and the plate is closed with seals. The microtitre plate is then shaken on a mechanical shaker (Eppendorf, Thermomixer Comfort), the temperature of the mechanical shaker being changed cyclically between 18° C. and 28° C. A cycle corresponds to one hour, and the shaking frequency is 500 per minute. After a time of 48 hours for establishing the equilibrium, the microtitre plate is removed from the mechanical shaker and the solid in each of the occupied vessels is investigated directly in the suspension using a Raman microscope. One or two Raman spectra are recorded in each vessel. The solvents in each vessel are then evaporated with the aid of a seal system having flow-through channels according to WO 03/026797 under nitrogen, a flow rate of about 0.03 litre per hour being established. Altogether, 92 Raman spectra are recorded in 64 experiments (32 directly from the suspension and 32 from the dried suspension).

[2] = Morisette et al., Advanced Drug Delivery Reviews 56 (2004) 275-300; cited from earlier work

Row | SMILES | number of different classes of Raman spectra (ideally corresponding to different solid forms of sertraline HCl) [1] | occurrence of form II among the solid forms obtained [1] | number of different crystal forms mentioned in the literature [2]
1 | CN[C@H]1CC[C@@H](c2ccc(Cl)c(Cl)c2)c2ccccc21 [amorphous form of sertraline HCl, sertraline HCl] | 25 | both the thermodynamically stable form I and the important form II are contained in these classes | 
2 | CN[C@H]1CC[C@@H](c2ccc(Cl)c(Cl)c2)c2ccccc21 [isopropanol solvate of sertraline HCl, sertraline HCl] | 16 |  | 
3 | CN[C@H]1CC[C@@H](c2ccc(Cl)c(Cl)c2)c2ccccc21 [sertraline HCl form I, sertraline HCl] | 11 | the important form II did not form | 
4 | CN[C@H]1CC[C@@H](c2ccc(Cl)c(Cl)c2)c2ccccc21 [sertraline HCl] |  |  | about 27
